Experimental data published in PMC8348200, “Selective Antifungal Activity and Fungal Biofilm Inhibition of Tryptophan Center Symmetrical Short Peptide” (International Journal of Molecular Sciences, 2021).
≈ marks a conversion by molar mass, not a printed value. Like-named read-outs stand apart in the source and are kept apart here. Residues, ends and D or L forms follow the SMILES beside them. No end group written: not given here.

Columns and labels:
L. plantarum 7469 = assay: microbe, parasite or virus in culture; type: cell-based; conditions: 24 h; read-out: MICs, L. plantarum 7469
Protocol: (§1) The peptide antimicrobial activity was determined according to the Clinical and Laboratory Standards Institute method, with modifications. Bacteria concentration was measured by ultraviolet spectrophotometer, and fungi concentration was confirmed by McMillan’s turbidimetric method, which compared the fungi solution with the standard McFarland tube in front of the horizontal line on the paper with the naked eye. Because the light has different refract in different liquids. The standard solution is composed of sulfuric acid and barium chloride, which is equivalent to 1*10^8 CFU fungi. After cultivation, the growth of fungi and bacteria was measured by TECAN automatic enzyme label instrument. Briefly, bacterial cells were cultured in MHB until logarithmic phase, yeast colonies cultured in Yeast Peptone Dextrose Agar (YPDA) were picked and diluted in RPMI 1640 growth medium buffered with morpholine propane sulfonic acid (MOPS), and then 50 μL of bacterial or fungi cell solution (0.5–1 × 10^4 CFU/mL) was added to each well of sterile 96-well plates. Each well contained 50 μL of AMPs dissolved in BSA; the final concentrations of the peptides ranged from 0.5 to 128 μM. The lowest concentration of peptide with no microbial growth being observed were measured after incubation at 37 °C for 24 h for bacteria or at 28 °C for 48 h for fungi. Broth with microbial cells and un-inoculated broth were used as positive control and negative controls, respectively.

[1] = tested on: C. tropicalis cgmcc 2.1975; assay: microbe, parasite or virus in culture; type: cell-based; conditions: cgmcc 2.1975, 48 h; read-out: MICs, C. tropicalis cgmcc 2.1975
Protocol: as §1

[2] = tested on: C. parapsilosis cgmcc 2.3989; assay: microbe, parasite or virus in culture; type: cell-based; conditions: cgmcc 2.3989, 48 h; read-out: MICs, C. parapsilosis cgmcc 2.3989
Protocol: as §1

S. thermophilus YM-C = assay: microbe, parasite or virus in culture; type: cell-based, Streptococcus thermophiles; conditions: 24 h; read-out: MICs, S. thermophilus YM-C
Protocol: as §1

S. aureus 29213 = assay: microbe, parasite or virus in culture; type: cell-based, Staphylococcus aureus; conditions: 29213, 24 h; read-out: MICs, S. aureus 29213
Protocol: as §1

S. aureus 25923 = assay: microbe, parasite or virus in culture; type: cell-based, Staphylococcus aureus; conditions: 25923, 24 h; read-out: MICs, S. aureus 25923
Protocol: as §1

E. coli 25922 = assay: microbe, parasite or virus in culture; type: cell-based, Escherichia coli; conditions: 25922, 24 h; read-out: MICs, E. coli 25922
Protocol: as §1

E. coli UB1005 = assay: microbe, parasite or virus in culture; type: cell-based, Escherichia coli; conditions: UB1005, 24 h; read-out: MICs, E. coli UB1005
Protocol: as §1

L. rhamnosus 1.0911 = assay: microbe, parasite or virus in culture; type: cell-based, Lactobacillus rhamnosus; conditions: 24 h; read-out: MICs, L. rhamnosus 1.0911
Protocol: as §1

L. rhamnosus 1.0385 = assay: microbe, parasite or virus in culture; type: cell-based, Lactobacillus rhamnosus; conditions: 24 h; read-out: MICs, L. rhamnosus 1.0385
Protocol: as §1

C. albicans SP3937 = assay: microbe, parasite or virus in culture; type: cell-based, Candida albicans; conditions: clinical isolate; RPMI 1640 buffered with MOPS, 28 °C 48 h, 0.5-128 μM; read-out: MICs, C. albicans SP3937
Protocol: as §1

C. albicans SP3903 = assay: microbe, parasite or virus in culture; type: cell-based, Candida albicans; conditions: clinical isolate; RPMI 1640 buffered with MOPS, 28 °C 48 h, 0.5-128 μM; read-out: MICs, C. albicans SP3903
Protocol: as §1

[3] = tested on: C. albicans Isolated from Alveolar Fluid; assay: microbe, parasite or virus in culture; type: cell-based, Candida albicans; conditions: RPMI 1640 buffered with MOPS, 28 °C 48 h, 0.5-128 μM; read-out: MICs, C. albicans Isolated from Alveolar Fluid
Protocol: as §1

C. albicans cgmcc 2.2086 = assay: microbe, parasite or virus in culture; type: cell-based, Candida albicans; conditions: cgmcc 2.2086, 48 h; read-out: MICs, C. albicans cgmcc 2.2086
Protocol: as §1

C. albicans SP3902 = assay: microbe, parasite or virus in culture; type: cell-based, Candida albicans; conditions: clinical isolate; RPMI 1640 buffered with MOPS, 28 °C 48 h, 0.5-128 μM; read-out: MICs, C. albicans SP3902
Protocol: as §1

[4] = tested on: Fluconazole-resistant C. albicans 56214; assay: microbe, parasite or virus in culture; conditions: fluconazole-resistant strain; RPMI 1640 buffered with MOPS, 28 °C 48 h, 0.5-128 μM
Protocol: as §1, with “Bacteria concentration was measured by ultraviolet spectrophotometer, and fungi concentration was confirmed by McMillan’s turbidimetric method, which compared the fungi solution with the standard McFarland tube in front of the horizontal line on the paper with the naked eye.” left out, “The lowest concentration of peptide with no microbial growth being observed were measured after incubation at 37 °C for 24 h for bacteria or at 28 °C for 48 h for fungi.” left out

human red blood cells = assay: Hemolysis assay; type: cell-based; conditions: at the highest tested concentration; fresh human erythrocytes
Protocol: The cytotoxicity of the peptides was determined with three cell types, including the Pig kidney cells, HEK 293T cells and fresh, healthy human red blood cells (donated by Zhihua Wang) via the MTT dye reduction assay and hemolysis assay.

C.albicans cgmcc 2.2086 = assay: microbe, parasite or virus in culture; type: cell-based, Candida albicans; conditions: cgmcc 2.2086, 24 h
Protocol: as §1, with “The lowest concentration of peptide with no microbial growth being observed were measured after incubation at 37 °C for 24 h for bacteria or at 28 °C for 48 h for fungi.” left out
The salt and acid sensitivities of the peptides were measured using with modified method to test MIC values; tested peptides were incubated in the presence of different final concentrations of physiological salts. The subsequent steps were consistent with the MIC determination protocol.

| Compound | MIC (L. plantarum 7469) [µM] | MIC [1] [µM] | MIC [2] [µM] | MIC (S. thermophilus YM-C) [µM] | MIC (S. aureus 29213) [µM] | MIC (S. aureus 25923) [µM] | MIC (E. coli 25922) [µM] | MIC (E. coli UB1005) [µM] | MIC (L. rhamnosus 1.0911) [µM] | MIC (L. rhamnosus 1.0385) [µM] | MIC (C. albicans SP3937) [µM] | MIC (C. albicans SP3903) [µM] | MIC [3] [µM] | MIC (C. albicans cgmcc 2.2086) [µM] | MIC (C. albicans SP3902) [µM] | MICs, C. albicans 56214 [4] [µM] | other results |
| --- | --- | --- | --- | --- | --- | --- | --- | --- | --- | --- | --- | --- | --- | --- | --- | --- | --- |
| CC(C)C[C@H](NC(=O)[C@H](CS)NC(=O)[C@H](CC(C)C)NC(=O)[C@H](Cc1c[nH]c2ccccc12)NC(=O)[C@H](CC(C)C)NC(=O)[C@H](CS)NC(=O)[C@H](CC(C)C)NC(=O)[C@H](CCCNC(=N)N)NC(=O)[C@@H](N)CCCNC(=N)N)C(=O)N[C@@H](CCCNC(=N)N)C(=O)N[C@@H](CCCNC(=N)N)C(N)=O [Peptide P3] (H-RRLCLWLCLRR-NH2; N-terminus assumed) | 128 (≈ 190 µg/mL) | 4 (≈ 5.95 µg/mL) | 16 (≈ 23.8 µg/mL) | >128 | 8 (≈ 11.9 µg/mL) | 8 (≈ 11.9 µg/mL) | 4 (≈ 5.95 µg/mL) | 2 (≈ 2.97 µg/mL) | 128 (≈ 190 µg/mL) | >128 | 16 (≈ 23.8 µg/mL) | 16 (≈ 23.8 µg/mL) | 16 (≈ 23.8 µg/mL) | 8 (≈ 11.9 µg/mL) | 16 (≈ 23.8 µg/mL) | 16 | – |
| RRLSLWLSLRR-NH2 [Peptide P2] | 128 | 2 | 8 | >128 | 4 | 16 | 4 | 2 | 8 | 8 | 8 | 16 | 8 | 4 | 16 | 8 | – |
| RRFSFWFSFRR-NH2 [Peptide P19] | >128 | 2 | 2 | >128 | 128 | >128 | 128 | 128 | >128 | >128 | 4 | 2 | 4 | 2 | 4 | 4 | hemolysis (human red blood cells): less than 5%; MIC (C.albicans cgmcc 2.2086; read-out: MIC in acid environment, pH = 6): 4 µM; MIC (C.albicans cgmcc 2.2086; read-out: MIC in the presence of FeCl3): 4 µM; MIC (C.albicans cgmcc 2.2086; read-out: MIC in the presence of KCl): 4 µM; MIC (C.albicans cgmcc 2.2086; read-out: MIC in the presence of MgCl2): 4 µM; MIC (C.albicans cgmcc 2.2086; read-out: MIC in the presence of NH4Cl): 4 µM; MIC (C.albicans cgmcc 2.2086; read-out: MIC in the presence of NaCl): 32 µM; MIC (C.albicans cgmcc 2.2086; read-out: MIC in the presence of ZnCl2): 4 µM; MIC (C.albicans cgmcc 2.2086; read-out: MIC, Control): 2 µM |
| RRISIWISIRR-NH2 [Peptide P17] | >128 | 1 | 1 | >128 | 128 | 128 | 128 | 16 | 32 | 8 | 4 | 2 | 8 | 4 | 4 | 4 | – |
| RRLALWLALRR-NH2 [Peptide P1] | >128 | 2 | 8 | 128 | 8 | 8 | 4 | 2 | 64 | 8 | 16 | 16 | 8 | 8 | 32 | 16 | – |
